{
  "source": "patent US10414721B1",
  "about": "“Inhibitor of endocannabinoid cellular reuptake” (University of Bern, priority 2018, dated 2019)",
  "key": {"[1]": {"tested_on": "AEA uptake in Neuro2a mouse neuroblastoma cells", "assay": "AEA uptake inhibition in Neuro2a cells", "assay_type": "cell-based", "method": "(§1) All radioactivity-based AEA and 2-AG uptake and release assays performed in U937, and HMC-1 cells were carried out using two different assay formats as previously reported. AEA and 2-AG uptake assay in Neuro2a and primary mouse cortical neurons were performed with a different method disclosed in Chicca 2017."}, "[2]": {"tested_on": "2-AG uptake in U937 cells", "assay": "2-AG uptake inhibition in U937 cells", "assay_type": "cell-based", "method": "as §1"}, "[3]": {"tested_on": "major serine hydrolases", "assay": "Activity-based protein profiling (ABPP) in mouse brain membranes", "assay_type": "biochemical", "details": "membranes from mouse brain", "method": "ABPP experiments were performed using membrane preparations obtained from mouse brains as described earlier."}, "[4]": {"biological_target": "COX-2 (Homo sapiens, UniProt P35354)", "sequence (P35354 18-604)": "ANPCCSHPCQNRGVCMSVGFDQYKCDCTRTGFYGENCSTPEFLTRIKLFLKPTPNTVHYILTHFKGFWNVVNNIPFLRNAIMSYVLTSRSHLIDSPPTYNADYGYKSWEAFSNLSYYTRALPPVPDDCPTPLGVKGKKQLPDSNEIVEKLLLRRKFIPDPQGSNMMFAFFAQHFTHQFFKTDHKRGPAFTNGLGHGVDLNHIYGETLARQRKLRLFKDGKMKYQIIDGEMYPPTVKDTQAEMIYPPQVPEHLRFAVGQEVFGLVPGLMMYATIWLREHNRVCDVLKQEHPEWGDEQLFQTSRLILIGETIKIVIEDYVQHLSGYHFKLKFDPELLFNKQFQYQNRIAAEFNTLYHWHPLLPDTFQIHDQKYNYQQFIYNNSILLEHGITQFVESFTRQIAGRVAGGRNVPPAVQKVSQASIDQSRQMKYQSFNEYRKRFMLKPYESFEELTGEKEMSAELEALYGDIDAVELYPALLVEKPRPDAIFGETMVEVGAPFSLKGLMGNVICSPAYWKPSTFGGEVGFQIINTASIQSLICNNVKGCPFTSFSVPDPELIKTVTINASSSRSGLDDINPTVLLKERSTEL", "assay": "COX-2 activity assay", "assay_type": "biochemical", "method": "FAAH, ABHDs, MAGL and COX-2 activity assays were performed using cell homogenates, human recombinant enzymes and mouse, rat and pig brain homogenates as previously described."}, "[5]": {"tested_on": "EC efflux and release in U937 cells", "assay": "EC efflux and release in U937 cells", "assay_type": "cell-based", "method": "as §1"}, "[6]": {"assay": "14C-WOBE437 saturation binding to mouse brain membranes", "details": "binding kinetics, high affinity site; read-out: affinity for membrane binding site", "method": "In addition to their effects on AEA uptake, the inhibition of FAAH was thoroughly investigated for all nanomolar inhibitors. […] The lack of significant FAAH inhibition by WOBE437 was established in different assay systems using human recombinant enzyme, cell and brain homogenates. […] Importantly, WOBE437 (1 μM) inhibited AEA uptake also in primary mouse cortical neurons by 50% after 2-7 min of incubation with a smaller inhibition (20-35%) upon longer incubation (10-20 min, FIG. 1F). […] In Neuro2a cells, incubation with WOBE437 (5 μM) for 2 and 5 min reduced overall uptake by 40%. (FIG. 1G). […] Then cells were treated with radiolabeled ^14C-WOBE437 to investigate the cellular penetration of the compound. In U937 cells, the vast majority of the radioactive signal was collected in the extracellular and membrane-bound fractions (75-90%), with negligible amounts (5-9%) detected in the intracellular fraction (FIGS. 2A-D). […] In order to further investigate this point, ^14C-WOBE437 was applied to membrane preparations generated in-house from mouse brain and U937 cells. […] The Kd values are in line with the IC50 values shown in the functional AEA uptake assays in Neuro2a and U937 cells (FIGS. 1C and 1D). In further experiments, 10 nM of ^14C-WOBE437 was co-incubated with different concentrations of AEA and U937 membranes. […] Furthermore, the endocannabinoids AEA and noladin ether and the AEA uptake inhibitor OMDM-2 could compete with ^14C-WOBE437 binding in brain and U937 membranes. […] Secondary plots of the slope (Kmapp/Vmaxapp vs. [WOBE437]) and intercept (1/Vmaxapp vs. [WOBE437]) confirmed the competitive inhibition of AEA uptake."}, "[7]": {"biological_target": "CB1 receptor (Homo sapiens, UniProt P21554)", "sequence (P21554 whole entry)": "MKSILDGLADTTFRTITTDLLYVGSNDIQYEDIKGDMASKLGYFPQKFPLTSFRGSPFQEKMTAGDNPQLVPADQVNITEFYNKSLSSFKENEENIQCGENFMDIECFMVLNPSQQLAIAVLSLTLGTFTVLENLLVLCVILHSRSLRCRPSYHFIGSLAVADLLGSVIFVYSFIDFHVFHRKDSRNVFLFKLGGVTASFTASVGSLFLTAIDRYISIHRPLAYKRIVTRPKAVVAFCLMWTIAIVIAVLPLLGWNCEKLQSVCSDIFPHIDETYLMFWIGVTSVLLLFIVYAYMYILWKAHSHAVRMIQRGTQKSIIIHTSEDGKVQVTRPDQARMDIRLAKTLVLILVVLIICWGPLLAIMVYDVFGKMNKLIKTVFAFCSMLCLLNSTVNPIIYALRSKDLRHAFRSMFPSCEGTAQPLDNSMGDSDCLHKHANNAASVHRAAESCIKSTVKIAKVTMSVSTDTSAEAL", "assay": "CB1 receptor binding assay", "method": "(§2) CB1 and CB2 receptor binding assays [^35S]GTPγS assays were performed as previously described. WOBE437 was profiled in more detail in an extended CNS adverse drug reaction screening panel (CEREP)."}, "[8]": {"biological_target": "CB2 receptor (Homo sapiens, UniProt P34972)", "sequence (P34972 whole entry)": "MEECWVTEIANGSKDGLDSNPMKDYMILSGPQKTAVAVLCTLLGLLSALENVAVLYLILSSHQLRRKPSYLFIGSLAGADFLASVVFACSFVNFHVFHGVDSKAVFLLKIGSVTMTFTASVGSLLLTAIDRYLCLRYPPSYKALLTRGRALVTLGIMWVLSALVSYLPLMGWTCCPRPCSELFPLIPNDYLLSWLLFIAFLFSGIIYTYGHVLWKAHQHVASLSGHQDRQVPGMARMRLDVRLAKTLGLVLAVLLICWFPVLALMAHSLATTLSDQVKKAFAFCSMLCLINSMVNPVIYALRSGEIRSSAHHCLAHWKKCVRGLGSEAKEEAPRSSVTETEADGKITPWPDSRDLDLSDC", "assay": "CB2 receptor binding assay", "method": "as §2"}, "[9]": {"assay": "LC-MS/MS quantification of WOBE437 in tissues after i.p. injection", "assay_type": "in vivo, mouse", "parameters": "highest concentration in brain: unit not given here", "method": "In order to investigate whether there was a link between the in vivo pharmacological effects of WOBE437 and the inhibition of EC uptake in vitro, the levels of WOBE437, AEA, 2-AG and related lipids in different tissues were quantified by LC-MS/MS. […] The Cbrain/Cplasma ratio (Kp) of WOBE437 was 0.65 after 5 min, 1.64 after 15 min and reached 1.9 after 30 and 60 min (FIGS. 4A and 4E). The peak concentration of WOBE437 in the brain was 780±267 nM, thus being in line with the bioactive concentrations determined in cellular assays. […] Only at 15 min post-injection, WOBE437 prevented the moderate increase of 2-AG induced by DMSO (FIG. 4C). […] On the contrary, 2-AG levels increased 1.7-fold compared to vehicle at 1 h post-injection (FIG. 4G). […] Repeated administrations of WOBE437 led to a significant 3-fold increase of corticosterone in the brain, which mirrors the changes observed in plasma (FIG. 4H). In peripheral organs, WOBE437 reached peak concentrations of 5-20 nmol/g tissue, without any signs of accumulation over 7 days. […] However, EC concentrations were not affected by repeated administrations of WOBE437 in peripheral tissues. Again, corticosterone levels were increased in spleen, liver and kidney.\nWOBE437, AEA, 2-AG, other lipids and hormones were quantified by LC-MS/MS in different biological matrices (cells, human whole blood, rodent tissues) as reported in Chicca 2017."}, "[10]": {"assay": "Microsomal clearance, mouse liver microsomes", "assay_type": "in vitro ADME", "method": "Human or mice microsome clearance experiment were carried out as according to a previously describe protocol. Briefly, microsome preparation (0.5 mg/mL) plus cofactor NADPH solution was incubated with 1 μM of WOBE437 in 96-well plates at 37° C. After 1, 3, 6, 9, 15, 25, 35 and 45 min, 40 μL of the preparation was transferred and quenched with 3:1 (v/v) acetonitrile containing internal standards. Samples were then cooled and centrifuged before analysis by LC-MS/MS. Log peak area ratios (test compound peak area/internal standard peak area) are plotted against incubation time using a linear fit. The calculated slope is used to determine the intrinsic clearance. Data are obtained from single experiments measured with multiple time-points."}},
  "data": [
    {"smiles": "CCCCCCC/C=C/C=C/C(=O)NCCc1ccc(OC)c(OC)c1", "note": "[WOBE437, (2E,4E)-N-[2-(3,4-Dimethoxyphenyl)ethyl]dodeca-2,4-dienamide]", "values": [
      {"measurement": "Hill slope, AEA uptake", "setting": "[1]; Neuro2a cells", "value": "−0.705"},
      {"measurement": "inhibition at 1 µM", "setting": "[1]; mouse/rat NG108-15, N2a, 2-10 min of incubation", "value": 35, "unit": "%"},
      {"measurement": "inhibition at 1 µM", "setting": "[1]; mouse/rat NG108-15, N2a, 15-20 min of incubation", "value": 20, "unit": "%"},
      {"measurement": "IC50", "setting": "[1]; mouse/rat NG108-15, N2a, Neuro2a cells", "value": "55 ± 18", "unit": "nM"},
      {"measurement": "Hill slope, 2-AG uptake", "setting": "[2]", "value": "−0.973"},
      {"measurement": "IC50", "setting": "[2]; Homo sapiens, U-937, 1 μM total 2-AG", "value": "283 ± 121", "unit": "nM"},
      {"measurement": "inhibition of major serine hydrolases (ABPP)", "setting": "[3]", "value": "does not inhibit any of the major serine hydrolases"},
      {"measurement": "inhibition of COX-2 activity", "setting": "[4]", "value": "did not inhibit"},
      {"measurement": "inhibition of EC release", "setting": "[5]", "value": 20, "unit": "%"},
      {"measurement": "effect on EC release", "setting": "[5]; cells stimulated with ATP, thapsigargin and ionomycin", "value": "blocked the release of both ECs"},
      {"measurement": "effect on AEA efflux", "setting": "[5]; pre-loaded U937 cells", "value": "inhibited the efflux of AEA"},
      {"measurement": "Kd", "setting": "[6]", "value": "10 to 20", "unit": "nM"},
      {"measurement": "Ki", "setting": "[7]", "value": 17000, "unit": "nM"},
      {"measurement": "Ki", "setting": "[8]", "value": 48000, "unit": "nM"},
      {"measurement": "peak concentration in the brain", "setting": "[9]; 10 mg/kg i.p.", "value": "780 ± 267", "unit": "nM"},
      {"measurement": "peak concentrations in peripheral organs", "setting": "[9]; 10 mg/kg i.p.", "value": "5-20 nmol/g tissue"},
      {"measurement": "peak plasma concentration", "setting": "[9]; 10 mg/kg i.p.", "value": "492±103"},
      {"measurement": "time of highest brain concentration", "setting": "[9]; 10 mg/kg i.p.", "value": 30, "unit": "min"},
      {"measurement": "time of peak plasma concentration", "setting": "[9]; 10 mg/kg i.p.", "value": 15, "unit": "min"},
      {"measurement": "brain concentration", "setting": "[9]; 10 mg/kg i.p., 1 h", "value": "652±165", "unit": "pmol/g brain"},
      {"measurement": "Cbrain/Cplasma ratio (Kp)", "setting": "[9]; 10 mg/kg i.p., after 15 min", "value": "> 1"},
      {"measurement": "highest concentration in brain", "setting": "[9]; 10 mg/kg i.p., after 30 min", "value": "919±314"},
      {"measurement": "concentration at 1 h", "setting": "[9]; mouse, brain, ip, 1 h after a single injection, 10 mg/kg i.p., read-out: estimated brain concentration", "value": 555, "unit": "nM"},
      {"measurement": "concentration at 7 days", "setting": "[9]; mouse, brain, ip, after 7 days of treatment, 10 mg/kg i.p. daily, read-out: estimated brain concentration", "value": 926, "unit": "nM"},
      {"measurement": "Kp at 1 h", "setting": "[9]; mouse, brain/plasma, ip, 10 mg/kg, 10 mg/kg i.p., after 30 and 60 min, read-out: Cbrain/Cplasma ratio (Kp)", "value": 1.9},
      {"measurement": "Kp at 5 min", "setting": "[9]; mouse, brain/plasma, ip, 10 mg/kg, 10 mg/kg i.p., after 5 min, read-out: Cbrain/Cplasma ratio (Kp)", "value": 0.65},
      {"measurement": "Kp at 0.25 h", "setting": "[9]; mouse, brain/plasma, ip, 10 mg/kg, 10 mg/kg i.p., after 15 min, read-out: Cbrain/Cplasma ratio (Kp)", "value": 1.64},
      {"measurement": "half-life", "setting": "[9]; mouse, plasma, ip, 10 mg/kg i.p.", "value": 3.38, "unit": "h"},
      {"measurement": "clearance", "setting": "[10]; 1 μM, preliminary", "value": 0.174, "unit": "mL/min/kg"},
      {"measurement": "bioavailability at 1 μM", "setting": "[10]; mouse, mice, from microsomal clearance, read-out: estimated maximal bioavailability", "value": 17, "unit": "%"}
    ]}
  ]
}
